“Also recorded” adds a separate entry of the source. Like-named read-outs stand apart in the source and are kept apart here.
Legend:
M14 = experiment: NCI 60 cell panel growth inhibition; assay type: cell-based, human; details: MELAN, read-out: anti-tumour activity GI50
From the text: (§1) Examples 6 and 7 make use of the NCl 60 cell panel. This is an in vitro cell line screening project providing direct support to the National Cancer Institute's USA Developmental Therapeutic Programme for anti cancer discovery. The methodolgy for the cell line's operation is described by Boyd et al in Drug Development Research 1995, 34, 91-109.

HCT-116 = experiment: NCI 60 cell panel growth inhibition; assay type: cell-based, human; details: COLON, read-out: anti-tumour activity GI50
From the text: as §1

K562 = experiment: NCI 60 cell panel growth inhibition; assay type: cell-based, human; details: Leukemia, read-out: anti-tumour activity GI50
From the text: as §1

SF-295 = experiment: NCI 60 cell panel growth inhibition; assay type: cell-based, human; details: CNS, read-out: anti-tumour activity GI50
From the text: as §1

OVCAR-5 = experiment: NCI 60 cell panel growth inhibition; assay type: cell-based, human; details: OVAR, read-out: anti-tumour activity GI50
From the text: as §1

786-0 = experiment: NCI 60 cell panel growth inhibition; assay type: cell-based, human; details: RENAL, read-out: anti-tumour activity GI50
From the text: as §1

CAKI-1 = experiment: NCI 60 cell panel growth inhibition; assay type: cell-based, human; details: RENAL, read-out: anti-tumour activity GI50
From the text: as §1

NCl 60 cell panel = experiment: NCI 60 cell line panel antitumour activity (whole panel); assay type: cell-based, human; details: for GI50: MGMID line of the panel, read-out: anti-tumour activity GI50, MGMID; for antitumour activity in the NCl 60 cell line panel (in words): wide range of human tumour cell lines
From the text: as §1

SNB-75 = experiment: NCI 60 cell panel growth inhibition; assay type: cell-based; details: Homo sapiens, CNS, read-out: anti-tumour activity GI50
From the text: as §1

HCT-15 = experiment: NCI 60 cell panel growth inhibition; assay type: cell-based; details: Homo sapiens, COLON, read-out: anti-tumour activity GI50
From the text: as §1

[1] = test system: linear double stranded plasmid pUC18 DNA; experiment: DNA crosslinking; assay type: biochemical; details: for EC50: read-out: CR50 (concentration at which 50% of the duplex is crosslinked)
Protocol: Plasmid DNA pUC 18 was linearised by digestion with Hind III. The linear DNA was then dephosphorylated with BAP and ^32P-radiolabelled on the 5′-end. The DNA was then purified by EtOH precipitation to remove unincorporated γ-^32P ATP and the DNA resuspended in sterile double distilled H2O. To each reaction sample was added ^32P-end labelled DNA and drug at the appropriate concentration. Following incubation at 37° C. for the required time, the reaction was terminated by the addition of Stop Solution Buffer. The DNA-drug adduct was EtOH precipitated and dried by lyophilisation. Each dried DNA sample including an untreated DNA single strand as a control was denatured by resuspending in alkali denaturing buffer. The double stranded control DNA was then dissolved in sucrose loading buffer and the samples loaded and electrophoresed on a 20 cm long 0.8% horizontal agarose gel submerged in 1×TAE buffer at 40 V for 16 h. Gels were then dried and autoradiographed
Compound 20 which consists of both the epoxide and mustard functionality was tested at concentrations between 0.1 and 50 μM at 1 h, 2 h and 3 h intervals. […] Crosslink formation starts at concentrations as low as 0.1 μM and reaches 100% crosslinking at −10 μM. After incubation for an hour the CR50 (concentration at which 50% of the duplex is crosslinked) was determined to be 3.1 μM. The percentage of crosslinked DNA was determined from autoradiograph densitometry.

SMILES: C=C(C)[C@H](OC(=O)c1cc(OC)cc2c(C)cccc12)C(=O)NCCN1CCCC(Cl)C1 (stereo partly drawn) [Compound 21]
- GI50 (M14; Homo sapiens): 1.75 µM
- GI50 (HCT-116; Homo sapiens): 12.8 µM
- GI50 (K562; Homo sapiens): 5.16 µM
- GI50 (SF-295; Homo sapiens): 4.35 µM
- GI50 (OVCAR-5; Homo sapiens): 11.1 µM
- GI50 (786-0; Homo sapiens): 4.48 µM
- GI50 (CAKI-1; Homo sapiens): 5.66 µM
- GI50 (NCl 60 cell panel; Homo sapiens, 60 cell): 5.12 µM
- antitumour activity in the NCl 60 cell line panel (in words) (NCl 60 cell panel): significant cytotoxicity in the low micromolar range
- GI50 (SNB-75): 1.2 µM
- GI50 (HCT-15): 0.049 µM

SMILES: COc1cc(C(=O)OC(C(=O)NCCN2CCCC(Cl)C2)C2(C)CO2)c2cccc(C)c2c1 (stereo not drawn) [Compound 20]
- concentration at which crosslink formation starts ([1]; 1 h incubation): 0.1 µM
- EC50 ([1]; 1 h incubation, 37° C.): 3.1 µM
- EC50 ([1]; 2 h incubation): 2.7 µM
- EC50 ([1]; 3 h incubation): 2.2 µM
- GI50 (M14): 100 µM
- GI50 (HCT-116): 100 µM
- GI50 (K562): 8.33 µM
- GI50 (SF-295): 13.1 µM
- GI50 (OVCAR-5): 16.1 µM
- GI50 (786-0): 100 µM
- GI50 (CAKI-1): 10.3 µM
- GI50 (NCl 60 cell panel): 12.3 µM
- antitumour activity in the NCl 60 cell line panel (in words) (NCl 60 cell panel): low micromolar to high nanomolar activity; also recorded: significant cytotoxicity in the low micromolar range

Source: patent US20090233966A1, “Analogues of the Azinomycins as Anti-Tumour Agents and as Prodrugs” (School of Pharmacy, University of London, priority 2005, published 2009)
